{"source": "patent US20260060947A1", "about": "(INSTITUT PASTEUR DE MONTEVIDEO, priority 2019, published 2026)", "key": {"NF-κB-p65": {"system": "NF-κB-p65", "experiment": "Nuclear NF-κB-p65 in perineuronal microglia of the spinal cord", "type": "in vivo, rat", "settings": "post-paralysis treatment for 15 days, 100 mg/kg/day", "description": "FIG. 9A: Scheme of the experimental design. SOD1^G93A female rats were treated with 100 mg/kg/day of BANA or vehicle immediately after the first signs of paralysis onset of one hindlimb and continue for 15 days. Immunohistological analysis of the lumbar spinal cord of non-transgenic and vehicle- and BANA-treated SOD1^G93A symptomatic rats were performed.\nFIG. 9C: Confocal images show NF-κB-p65 (green) and DAPI (red) expression in the ventral horn of the spinal cord of non-transgenic and symptomatic SOD1^G93A rats, treated with vehicle or BANA, in the surroundings of motor neurons (white dotted lines). Nuclei stained in yellow denote nuclear NF-κB-p65 and DAPI colocalization (white arrows). […] Data are expressed as mean±SEM; data were analyzed by the Kruskal-Wallis test followed by Dunn's multiple comparisons test, **p=0.0018, ***p=0.0003. n=4 animals per condition. Scale bar=20 μm.\nAt least 4 rats were analyzed for each immunohistochemistry experiment. Three different conditions were studied as follows: 1) non-transgenic (NonTg) rats of 160-180 days; 2) transgenic SOD1^G93A rats of 195-210 days treated with vehicle (paralysis, 15 d-vehicle) and 3) transgenic SOD1^G93A rats of 195-210 days treated with 50 or 100 mg/kg/day of BANA during 15 days. After treatment animals were deeply anesthetized and transcardial perfusion was performed with paraformaldehyde 4% (v/v) in PBS pH=7.4. […]"}, "[1]": {"experiment": "BANA plasma levels by RP-HPLC after oral administration", "type": "in vivo, SOD1^G93A rats", "description": "Only female transgenic rats showing weakness and gait alterations in the […] as the first clinical sign were selected for BANA treatment studies. Rats were divided randomly into BANA or vehicle-treated groups. BANA was freshly prepared in buffer phosphate (PB), and administrated daily at a dose of 100 mg/kg using a curved stainless steel gavage needle with 3-mm ball tip. Rats were treated from day-1 post-paralysis for 15 days or until end-stage when they were euthanized.\nFor the detection of BANA in plasma, experiments were performed using RP-HPLC analysis (Agilent 1200 HPLC system). Rats were sacrificed and plasma samples were obtained. 100 μL of plasma was incubated with HgCl2 (20 mM) at 37° C. for 30 minutes and after that extracted with 900 μL of acetonitrile (ACN) and injected into HPLC in a 20-40% gradient of B in 10 minutes. BANA plasma concentration was calculated from a standard curve using Salicylate as an internal standard. (CPAK C-18, […], 150 mm×3.9 mm I.D. column; A phase: H2O 0.1% Formic acid; B phase: ACN 0.1% Formic acid; detection at 300 nm)\nRates were dosed with 100 mg/kg/day of BANA administered orally."}, "SOD1^G93A rats": {"system": "SOD1^G93A rats", "experiment": "Motor neuron analysis in lumbar spinal cord (ChAT, soma size, ubiquitin, nitrotyrosine, synaptic terminals)", "type": "in vivo, rat", "description": "One of the main features of ALS in both human patients and animal models is motor neuron loss, thus the effect of BANA on motor neuron size and number was characterized. To further investigate the protective effect of BANA on motor neuron pathology in SOD1^G93A symptomatic rats, experiments were conducted to assess the number of synaptic terminals contacting motor neuron cell bodies in the ventral spinal cord as well as the denervation of neuromuscular junctions.\nThe number of motor neurons expressing ChAT was assessed by counting the positive cells in the gray matter of the lumbar spinal cord of non-transgenic compared with symptomatic SOD1^G93A onset, vehicle- and BANA treated rats. Motor neuron counting was assessed by counting ChAT positive cells in the ventral horn on eight 30 μm sections taken 100 μm apart. The longest axis (length) of each soma was taken into consideration to quantify the mean size of motor neuron soma. The analysis was performed manually in at least 10 histological sections per animal (four different rats for each condition) using the cell counter tool of the ImageJ software. Statistical studies were performed using statistical tools of the GraphPad Prism 7 software. Descriptive statistics were used for each group, and Kruskal-Wallis analysis followed by Dunn's comparison test was used among groups. Results are presented as mean±SEM, with p<0.05 considered significant.\nIn other experiments, the number of synaptic vesicles contacting motor neuron cell bodies was assessed by immunohistochemistry by counting VGlut-1-positive and Synaptophysin-positive puncta in Rexed laminae VII and IX. Synaptic terminals were quantified in at least 20 motor neurons per animal (4 different rats per condition) using the Analyze Particles tool of ImageJ software."}, "NF-kB": {"system": "NF-kB", "experiment": "NF-kB activation after sciatic nerve section in NF-kB-RE-Luc mice (in vivo luminescence)", "design": "species or system mouse", "settings": "oral 100 mg/kg/day day 0 to day 4, vs vehicle", "description": "FIG. 17A: Scheme of the experimental design in which NF-kB-RE-Luc tg mice were treated with 100 mg/kg/day of BANA or vehicle starting immediately before sciatic nerve section (day 0) until day 4.\nFor NF-kB in vivo imaging studies, the NF-kB-RE-Luc random transgenic mouse model (Taconic, BALB/c-Tg(Rela-luc)31Xen) aged 6-8 weeks was used. These animals carry a transgene containing 6 NF-kB-responsive elements (RE) from the CMVα (immediate early) promoter placed upstream of a basal SV40 promoter, and a modified firefly luciferase cDNA (Promega pGL3). Animals were randomized divided into two groups and orally administrated with 100 mg/kg of BANA or Vehicle (phosphate buffer) starting immediately before sciatic nerve section in the right hindlimb and continuing for 4 days. At day 1, 2 and 4 post-surgery, differences in luciferase activity were compared between groups. To accomplish that, 150 mg/kg of the substrate D-luciferin (#K9918PE, XenoLight) dissolved in PBS, pH 7.4, was injected intraperitoneally to each mouse. […] Changes in NF-kB activity were quantified after comparing the differences of luminescence in the right hindlimb between groups, using ImageJ software."}, "[2]": {"experiment": "LC50 in cell culture of SOD1^G93A adult microglia", "type": "cell-based", "settings": "rat"}, "[3]": {"settings": "100 mg/kg/day, 15 days after paralysis onset, vs vehicle"}}, "note": "Values joined by “and” are separate entries in the source; they are usually repeats but may differ in a detail not shown here. Equal entries are not always repeated."}
{"smiles": "O=C(O)c1ccc(/C=C/[N+](=O)[O-])cc1", "note": "[BANA, (E)-4-(2-nitrovinyl) benzoic acid]", "values": [{"measurement": "perineuronal microglia bearing NF-κB-p65-positive nuclei", "setting": "NF-κB-p65", "value": "significant reduction"}, {"measurement": "[BANA] in plasma, sample + HgCl2", "setting": "[1]; SOD1^G93A symptomatic rats, 15 days oral daily 100 mg/kg, plasma incubated with HgCl2 (20 mM, 37° C., 30 min), 100 mg/kg", "value": "3.69 μm and 3.45 μm and 3.58 μm"}, {"measurement": "concentration at 15 days", "setting": "[1]; female, SOD1^G93A transgenic, rat, plasma, po, 100 mg/kg, SOD1^G93A symptomatic rats, 15 days oral daily 100 mg/kg, plasma incubated with HgCl2 (20 mM, 37° C., 30 min), read-out: [BANA] in plasma, sample + HgCl2", "value": 3.29, "unit": "µM"}, {"measurement": "BANA plasma levels reached", "setting": "[1]; rats, 100 mg/kg/day orally, HPLC", "value": 3.49, "unit": "µM"}, {"measurement": "fraction of plasma BANA covalently linked to proteins", "setting": "[1]; rats, oral 100 mg/kg/day for 5 days", "value": "more than 90%"}, {"measurement": "plasma concentration after oral administration (in words)", "setting": "[1]; rats, oral administration", "value": "low micromolar concentration"}, {"measurement": "loss of VGlut-1-positive and Synaptophysin-positive synaptic terminals", "setting": "SOD1^G93A rats; 100 mg/kg/day post-paralysis, vs vehicle", "value": "significantly prevented"}, {"measurement": "number of ChAT+ motor neurons", "setting": "SOD1^G93A rats; 100 mg/kg/day, 15 days after paralysis onset", "value": "prevented motor neuron loss"}, {"measurement": "NO2-Tyrosine accumulation in surviving motor neurons", "setting": "SOD1^G93A rats; [3]", "value": "significantly prevented"}, {"measurement": "motor neuron size", "setting": "SOD1^G93A rats; [3]", "value": "ameliorated"}, {"measurement": "ubiquitin accumulation / aggregation in motor neurons", "setting": "SOD1^G93A rats; [3]", "value": "significantly prevented"}, {"measurement": "NF-kB luminescence in right hindlimb after sciatic nerve section", "setting": "NF-kB", "value": "significantly prevented"}, {"measurement": "CC50", "setting": "[2]", "value": 30, "unit": "µM"}]}
